Reference: US10800741B2 (ANCUREALL PHARMACEUTICAL (SHANGHAI) CO., LTD., priority 2017, dated 2020)
pIC50: −log10 of the molar value.

Columns and labels:
H1581 (FGFR1 amp) = assay: In vitro growth inhibition of H1581 tumor cells (MTT/CCK8); assay type: cell-based, Human; conditions: Homo sapiens, NCI-H1581; in vitro growth inhibition (or induction of apoptosis), cells cultured 3 to 5 days, MTT (CCK8); read-out: IC50 H1581 (FGFR1 amp)
KATO III (FGFR2 amp) = assay: In vitro growth inhibition of KATO III tumor cells (MTT/CCK8); assay type: cell-based, Human; conditions: Homo sapiens, KATO III; in vitro growth inhibition (or induction of apoptosis), cells cultured 3 to 5 days, MTT (CCK8); read-out: IC50 KATO III (FGFR2 amp)
Hep3B2 (FGFR3/4+++) = assay: In vitro growth inhibition of Hep3B2 tumor cells (MTT/CCK8); assay type: cell-based, Human; conditions: Homo sapiens, Hep3B; in vitro growth inhibition (or induction of apoptosis), cells cultured 3 to 5 days, MTT (CCK8); read-out: IC50 Hep3B2 (FGFR3/4+++)
MOLM-13 (FLT3-ITD) = assay: In vitro growth inhibition of MOLM-13 tumor cells (MTT/CCK8); assay type: cell-based, Human; conditions: Homo sapiens, MOLM-13; in vitro growth inhibition (or induction of apoptosis), cells cultured 3 to 5 days, MTT (CCK8); read-out: IC50 MOLM-13 (FLT3-ITD)
KCL-22 (BCR-ABL) = assay: In vitro growth inhibition of KCL-22 tumor cells (MTT/CCK8); assay type: cell-based, Human; conditions: Homo sapiens, KCL-22; in vitro growth inhibition (or induction of apoptosis), cells cultured 3 to 5 days, MTT (CCK8); read-out: IC50 KCL-22 (BCR-ABL)
Kasumi-1 (KIT N822K) = assay: In vitro growth inhibition of Kasumi-1 tumor cells (MTT/CCK8); assay type: cell-based, Human; conditions: Homo sapiens, Kasumi 1; in vitro growth inhibition (or induction of apoptosis), cells cultured 3 to 5 days, MTT (CCK8); read-out: IC50 Kasumi-1 (KIT N822K)
H1703 (PDGFRa amp) = assay: In vitro growth inhibition of H1703 tumor cells (MTT/CCK8); assay type: cell-based, Human; conditions: Homo sapiens, NCI-H1703; in vitro growth inhibition (or induction of apoptosis), cells cultured 3 to 5 days, MTT (CCK8); read-out: IC50 H1703 (PDGFRa amp)
Karpas 299 (NPM-ALK) = assay: In vitro growth inhibition of Karpas 299 tumor cells (MTT/CCK8); assay type: cell-based, Human; conditions: Homo sapiens, KARPAS-299; in vitro growth inhibition (or induction of apoptosis), cells cultured 3 to 5 days, MTT (CCK8); read-out: IC50 Karpas 299 (NPM-ALK)
RS4:11 = assay: In vitro growth inhibition of FLT3 wild type overexpressing cells RS4:11; assay type: cell-based; conditions: Homo sapiens, cells over expressing FLT3 wild-type
Procedure: (§1) Adherent cells were digested with 0.25% trypsin-EDTA (Gibco). Suspension culture cells were collected by centrifugation (1700 rpm, 3 minutes). The supernatant was discarded and the cells were counted. According to each cell growth cycle, different concentrations of cells were prepared (5˜10×10^4 cells per ml), and inoculated to 96-well plates (Corning), with 100 μl per well, and incubated overnight at 37° C., 5% CO2. The next day, the test compound was added to the cultured cells (2 wells in parallel). The final concentration of the solvent was less than 1/1,000. The cells were further cultured for 3 to 5 days and assayed by MTT.
(§2) The MTT test reagent was a Dojindo CCK8 kit and the Microplate Reader was a THERMO […] FC instrument.
(§3) The adherent cells were taken out from the cell culture medium, and immediately added to a freshly prepared complete medium containing 10% CCK8 (5% FBS), 100 ul per hole. The suspended cells were directly added to a CCK8 reagent until reaching a final concentration of 10% and cultured for 1 to 4 hours. When a dark yellow color could be observed in the solvent control wells, the absorbance value at OD450 nm was measured and the cell growth rate was calculated according to the following formula: Cell Growth Rate (%)=100×(T−T0)/(C−T0)
(§4) T=optical density of drug-treated cell wells−optical density of blank control wells; T0=optical density of cell wells before drug treatment−optical density of blank control wells; C=optical density of solvent control wells−optical density of blank control wells. […] The experiments were repeated 1 to 3 times and a statistical analysis of data was conducted.
(§5) The present compounds which has a high growth inhibition activity on tumor cells positive expressing FLT3-ITD were selected for the determination of IC50 concentration on FLT3 wild tyoverexpressing cells RS4:11 and FLT3 wild-type normal expressing cells Jurkat. The specific test method is the same as that of test example 1.

Jurkat = assay: In vitro growth inhibition of FLT3 wild-type normal expressing cells Jurkat; assay type: cell-based; conditions: Homo sapiens, cells normally expressing FLT3 wild-type
Procedure: as §1, §2, §3, §4, §5

[1] = system: human intestinal cancer cell line HCT116 (KRAS G13D mutation); assay: Growth inhibition in combination with MEK1/2 inhibitor Trametinib, HCT116 (KRAS G13D mutation); assay type: cell-based; conditions: 5 days
Procedure: (§6) Test Example 5 Synergistic Inhibition Effect of the Present Compounds in Combination with MEK1/2 Inhibitor on the Growth of RAS Mutant Tumor Cells In Vitro
(§7) The cell culture, drug treatment and MTT assay of human intestinal cancer cell line HCT116 (KRAS G13D mutation) and human non-small cell lung cancer cell line NCI-H1299 (NRAS Q61K mutation) were performed according to the method of test example 1. Cells were treated with the MEK1/2 inhibitor Trametinib at 25 nM, 2.5 nM and 0.25 nM alone or in combination with compound 66 or 125 of the present invention (5 days).

[2] = system: human non-small cell lung cancer cell line NCI-H1299 (NRAS Q61K mutation); assay: Growth inhibition in combination with MEK1/2 inhibitor Trametinib, NCI-H1299 (NRAS Q61K mutation); assay type: cell-based; conditions: 5 days
Procedure: as §6, §7

[3] = compound 7.8 nM + Trametinib 0.25 nM
[4] = compound 7.8 nM + Trametinib 2.5 nM
[5] = compound 7.8 nM + Trametinib 25 nM
[6] = compound 15.6 nM + Trametinib 0.25 nM
[7] = compound 15.6 nM + Trametinib 2.5 nM
[8] = compound 15.6 nM + Trametinib 25 nM

Row | SMILES | pIC50 (H1581 (FGFR1 amp)) | pIC50 (KATO III (FGFR2 amp)) | pIC50 (Hep3B2 (FGFR3/4+++)) | pIC50 (MOLM-13 (FLT3-ITD)) | pIC50 (KCL-22 (BCR-ABL)) | pIC50 (Kasumi-1 (KIT N822K)) | pIC50 (H1703 (PDGFRa amp)) | pIC50 (Karpas 299 (NPM-ALK)) | pIC50 (RS4:11) | pIC50 (Jurkat) | other results
1 | COc1cc2nccc(Oc3ccc(NC(=O)Nc4cc(C(C)(C)C)on4)cc3)c2cc1C(N)=O [Compound 1, 4-{4-[3-(5-tert-butyl-isoxazol-3-yl)-ureido]-phenoxy}-7-methoxyquinolin-6-carboxamide] | 7.79 | 8.89 | 6.55 | > 10.30 | 7.19 | 7.05 | 8.02 | 6.40 | 6.73 | 6.28 | –
2 | COc1cc2nccc(Oc3ccc(NC(=O)Nc4cc(C(C)(C)C)on4)cc3Br)c2cc1C(N)=O [Compound 7, 4-{2-Bromo-4-[3-(5-tert-butyl-isoxazol-3-yl)-ureido]-phenoxy}-7-methoxyquinolin-6-carboxamide] | 7.26 | 8.20 | 7.08 | > 10.30 | 7.70 | 7.34 | 7.71 | 6.73 | 6.43 | 6.52 | –
3 | COc1cc2nccc(Oc3ccc(NC(=O)Nc4cc(C(C)(C)C)on4)cn3)c2cc1C(N)=O [Compound 24, 4-{5-[3-(5-tert-butyl-isoxazol-3-yl)-ureido]-pyridin-2-yloxy}-7-methoxyquinolin-6-carboxamide] | 6.31 | 7.51 | 6.46 | 9.00 | < 6.00 | < 6.00 | 7.08 | 6.12 | < 6.00 | 6.24 | –
4 | CC(=O)Nc1cccc(-n2c(=O)n(C3CC3)c(=O)c3c(Nc4ccc(I)cc4F)n(C)c(=O)c(C)c32)c1 [Trametinib, reference compound] | – | – | – | – | – | – | – | – | – | – | inhibition at 0.00025 µM ([1]; Homo sapiens, HCT-116, 120 h, Trametinib 0.25 nM alone, read-out: cell growth inhibition (percentage)): 12.1%; inhibition at 0.0025 µM ([1]; Homo sapiens, HCT-116, 120 h, Trametinib 2.5 nM alone, read-out: cell growth inhibition (percentage)): 27.7%; inhibition at 0.025 µM ([1]; Homo sapiens, HCT-116, 120 h, Trametinib 25 nM alone, read-out: cell growth inhibition (percentage)): 75.1%; inhibition at 0.00025 µM ([2]; Homo sapiens, NCI-H1299, 120 h, Trametinib 0.25 nM alone, read-out: cell growth inhibition (percentage)): 2.2%; inhibition at 0.0025 µM ([2]; Homo sapiens, NCI-H1299, 120 h, Trametinib 2.5 nM alone, read-out: cell growth inhibition (percentage)): 6.31%; inhibition at 0.025 µM ([2]; Homo sapiens, NCI-H1299, 120 h, Trametinib 25 nM alone, read-out: cell growth inhibition (percentage)): 15.5%
5 | COc1cc2nccc(Oc3ccc(NC(=O)Nc4cc(C(C)(C)C)on4)cc3Cl)c2cc1C(N)=O [Compound 8, 4-{4-[3-(5-tert-butyl-isoxazol-3-yl)-ureido]-2-chloro-phenoxy}-7-methoxyquinolin-6-carboxamide] | 7.71 | 8.53 | 7.34 | > 10.30 | 7.73 | 7.45 | 7.76 | 6.85 | 6.43 | 6.54 | –
6 | COc1cc2nccc(Oc3ccc(NC(=O)Nc4cc(C(C)(C)C)n[nH]4)cc3C)c2cc1C(N)=O [Compound 35, 4-{4-[3-(5-tert-butyl-2H-pyrazol-3-yl)-ureido]-2-methyl-phenoxy}-7-methoxyquinolin-6-carboxamide] | 6.98 | 8.35 | 6.78 | > 10.30 | 7.77 | 8.14 | 6.97 | 6.41 | < 6.00 | 6.37 | –

Now from value to compound, other results behind:

Row | pIC50 (H1581 (FGFR1 amp)) | pIC50 (KATO III (FGFR2 amp)) | pIC50 (Hep3B2 (FGFR3/4+++)) | pIC50 (MOLM-13 (FLT3-ITD)) | pIC50 (KCL-22 (BCR-ABL)) | pIC50 (Kasumi-1 (KIT N822K)) | pIC50 (H1703 (PDGFRa amp)) | pIC50 (Karpas 299 (NPM-ALK)) | pIC50 (RS4:11) | SMILES | pIC50 (Jurkat) | other results
7 | 8.33 | 9.72 | 8.02 | 9.01 | 9.30 | 8.69 | 8.19 | 7.28 | 6.86 | COc1cc2nccc(Oc3ccc(NC(=O)Nc4cc(C(C)(C)C)n[nH]4)c(Cl)c3Cl)c2cc1C(N)=O [Compound 37, 4-{4-[3-(5-tert-butyl-2H-pyrazol-3-yl)-ureido]-2,3-dichloro-phenoxy}-7-methoxyquinolin-6-carboxamide] | 6.39 | –
8 | 8.08 | 8.88 | 7.12 | > 10.30 | 7.99 | 7.01 | 7.15 | < 6.00 | 6.30 | COc1cc2nccc(Oc3ccc(NC(=O)Nc4cc(C(C)(C)C)n[nH]4)cc3F)c2cc1NC(C)=O [Compound 102, N-(4-{4-[3-(5-tert-butyl-2H-pyrazol-3-yl)-ureido]-2-fluoro-phenoxy}-7-methoxy-quinolin-6-yl)-acetamide] | – | –
9 | 7.27 | 8.26 | 6.81 | 9.57 | 7.62 | 7.58 | 7.15 | 6.95 | 6.27 | CNC(=O)c1cc2c(Oc3ccc(NC(=O)Nc4cc(C(C)(C)C)n[nH]4)cc3Cl)ccnc2cc1OC [Compound 54, 4-{4-[3-(5-tert-butyl-2H-pyrazol-3-yl)-ureido]-2-chloro-phenoxy}-7-methoxyquinolin-6-carboxylic acid methylamide] | – | –
10 | 8.97 | 9.64 | – | 8.92 | – | – | – | – | – | COCCOc1cc2nccc(Oc3ccc(NC(=O)Nc4cc(C(C)(C)C)nn4C4CC4)c(Cl)c3)c2cc1NC(C)=O [Compound 125] | – | inhibition at 0.0078 µM ([1]; Homo sapiens, HCT-116, 120 h, compound 7.8 nM alone (solvent instead of Trametinib), read-out: cell growth inhibition (percentage)): 14.5%; inhibition at 0.0156 µM ([1]; Homo sapiens, HCT-116, 120 h, compound 15.6 nM alone (solvent instead of Trametinib), read-out: cell growth inhibition (percentage)): 19.9%; cell growth inhibition (percentage) [1, 3]: 62.54%; cell growth inhibition (percentage) [1, 4]: 76.01%; cell growth inhibition (percentage) [1, 5]: 82.04%; cell growth inhibition (percentage) [1, 6]: 71.98%; cell growth inhibition (percentage) [1, 7]: 79.72%; cell growth inhibition (percentage) [1, 8]: 82.82%; inhibition at 0.0078 µM ([2]; Homo sapiens, NCI-H1299, 120 h, compound 7.8 nM alone (solvent instead of Trametinib), read-out: cell growth inhibition (percentage)): 1.63%; inhibition at 0.0156 µM ([2]; Homo sapiens, NCI-H1299, 120 h, compound 15.6 nM alone (solvent instead of Trametinib), read-out: cell growth inhibition (percentage)): 6.5%; cell growth inhibition (percentage) [2, 3]: 9.27%; cell growth inhibition (percentage) [2, 4]: 24.38%; cell growth inhibition (percentage) [2, 5]: 46.25%; cell growth inhibition (percentage) [2, 6]: 19.92%; cell growth inhibition (percentage) [2, 7]: 34.72%; cell growth inhibition (percentage) [2, 8]: 58.26%
